Where two headings read alike, the source gives them in different places.
What was measured:
[1] = system: RPE-Neo or RPE-MYC or RPE-MYC expressing an EGFP-Histone 2B fusion protein; experiment: Phenotypic screening assay: arrest in mitosis, change in DNA content (polyploidy), cell death; assay type: cell-based; settings: 20 nM to 20 μM, 24, 48 or 72 hours
Description: (§1) Human cancer cell lines were obtained from ATCC and cultured in DMEM (Gibco, Cleveland, TN, USA) supplemented with 5% fetal bovine serum (Gibco), penicillin (100 U/mL)-streptomycin (100 μg/mL) (Gibco, Cat. No. 15140-122), 2 mM L-glutamine (Gibco, 200 mM solution, Cat. No. 25030081), and 1 mM sodium pyruvate (Gibco, 100 mM solution, Cat. No. 11360070) at 37° C. in a humidified incubator that was maintained at 5% CO2.
Screening was conducted as described before (Li et al. 2019). Briefly, RPE-Neo or RPE-MYC or RPE-MYC expressing an EGFP-Histone 2B fusion protein were passaged as batches of 96-well plates, 18-24 hours before exposure to the chemical compounds of the present disclosure at concentrations from 20 nM to 20 μM. At 24, 48 or 72 hours after initiation of treatment, cells were analyzed for either an arrest in mitosis or a change in DNA content by GE IN-Cell Analyzer 2000. MTT assays of cellular proliferation were performed as previously described (Li et al. 2019).
(§2) As set forth in table 2 below, an values of greater than or equal to 1 nM and less than or equal to 1.0 μM is marked “A”; a value greater than 1.00 μM and less than or equal to 10.0 μM is marked “B”; a value greater than 10.0 μM and less than or equal to 30.0 μM is marked “C”; and a value greater than 30.0 μM and less than 1000 μM is marked “D.”

[2] = system: RPE-Neo or RPE-MYC cells; experiment: MTT assay of cellular proliferation (proliferative arrest); assay type: cell-based; settings: read-out: Min. Effective conc. for Proliferative arrest (>50%)
Description: as §1
Screening was conducted as described before (Li et al. 2019). Briefly, RPE-Neo or RPE-MYC or RPE-MYC expressing an EGFP-Histone 2B fusion protein were passaged as batches of 96-well plates, 18-24 hours before exposure to the chemical compounds of the present disclosure at concentrations from 20 nM to 20 μM. At 24, 48 or 72 hours after initiation of treatment, cells were analyzed for either an arrest in mitosis or a change in DNA content by GE IN-Cell Analyzer 2000. MTT assays of cellular proliferation were performed as previously described (Li et al. 2019). […]
as §2

[3] = read-out: Min. Effective conc. for Along with Cell Death
[4] = ≥5%, read-out: Min. Effective conc. for Mitotic Arrest (≥5%)
[5] = ≥5%, read-out: Min. Effective conc. for Polyploidy (≥5%)

Row | Compound | minimal effective concentration [1, 3] | minimal effective concentration [1, 4] | minimal effective concentration [1, 5] | minimal effective concentration [2]
1 | COc1ccc(CN2C(=O)CC(c3ncc(C)o3)=Cc3ccc(-c4cnn(CC#N)c4)cc32)cc1 [Compound 68, 2-(4-(1-(4-methoxybenzyl)-4-(5-methyloxazol-2-yl)-2-oxo-2,3-dihydro-1H-benzo[b]azepin-8-yl)-1H-pyrazol-1-yl)acetonitrile] | 0.001 to 1 µM | 0.001 to 1 µM | 0.001 to 1 µM | 0.001 to 1 µM
2 | CCOC(=O)Cn1cc(-c2ccc3c(c2)N(Cc2ccc(OC)cc2)C(=O)CC(c2ncc(C)o2)=C3)cn1 [Compound 71, Ethyl 2-(4-(1-(4-methoxybenzyl)-4-(5-methyloxazol-2-yl)-2-oxo-2,3-dihydro-1H-benzo[b]azepin-8-yl)-1H-pyrazol-1-yl)acetate] | 0.001 to 1 µM | 0.001 to 1 µM | 0.001 to 1 µM | 0.001 to 1 µM
3 | COc1ccc(CN2C(=O)CC(c3ncc(C)o3)=Cc3ccc(-c4cnn(CCC#N)c4)cc32)cc1 [Compound 59, 3-(4-(1-(4-Methoxybenzyl)-4-(5-methyloxazol-2-yl)-2-oxo-2,3-dihydro-1H-benzo[b]azepin-8-yl)-1H-pyrazol-1-yl)propanenitrile] | 0.001 to 1 µM | 0.001 to 1 µM | 0.001 to 1 µM | 0.001 to 1 µM
4 | COc1ccc(CN2C(=O)CC(c3nnco3)=Cc3ccc(Br)cc32)cc1 [Compound 14, 8-bromo-1-(4-methoxybenzyl)-4-(1,3,4-oxadiazol-2-yl)-1,3-dihydro-2H-benzo[b]azepin-2-one] | 0.001 to 1 µM | 0.001 to 1 µM | 0.001 to 1 µM | 0.001 to 1 µM
5 | COc1ccc(CN2C(=O)CC(c3ncc(C)o3)=Cc3ccc(-c4ccn(C)c(=O)c4)cc32)cc1 [Compound 62, 1-(4-Methoxybenzyl)-8-(1-methyl-2-oxo-1,2-dihydropyridin-4-yl)-4-(5-methyloxazol-2-yl)-1,3-dihydro-2H-benzo[b]azepin-2-one] | 0.001 to 1 µM | 0.001 to 1 µM | 0.001 to 1 µM | 0.001 to 1 µM
6 | Cc1cnc(C2=Cc3ccc(-c4cccnc4)cc3N(Cc3ccc(C)c(F)c3)C(=O)C2)o1 [Compound 23, 1-(3-fluoro-4-methylbenzyl)-4-(5-methyloxazol-2-yl)-8-(pyridin-3-yl)-1,3-dihydro-2H-benzo[b]azepin-2-one] | 0.001 to 1 µM | 0.001 to 1 µM | 0.001 to 1 µM | 0.001 to 1 µM
7 | COCCCCn1cc(-c2ccc3c(c2)N(Cc2ccc(OC)cc2)C(=O)CC(c2ncc(C)o2)=C3)cn1 [Compound 79, 1-(4-methoxybenzyl)-8-(1-(4-methoxybutyl)-1H-pyrazol-4-yl)-4-(5-methyloxazol-2-yl)-1,3-dihydro-2H-benzo[b]azepin-2-one] | 0.001 to 1 µM | 0.001 to 1 µM | 0.001 to 1 µM | 0.001 to 1 µM
8 | COc1ccc(CN2C(=O)CC(c3ncc(C)o3)=Cc3ccc(-c4ccc(C5CC5)nc4)cc32)cc1 [Compound 43, 8-(6-cyclopropylpyridin-3-yl)-1-(4-methoxybenzyl)-4-(5-methyloxazol-2-yl)-1,3-dihydro-2H-benzo[b]azepin-2-one] | 0.001 to 1 µM | 0.001 to 1 µM | 0.001 to 1 µM | 0.001 to 1 µM
9 | COc1ccc(CN2C(=O)CC(c3ncc(C)o3)=Cc3ccc(-c4cnn(C5(CC#N)CN(C(=O)C6CC6)C5)c4)cc32)cc1 [Compound 90, 2-(1-(Cyclopropanecarbonyl)-3-(4-(1-(4-methoxybenzyl)-4-(5-methyloxazol-2-yl)-2-oxo-2,3-dihydro-1H-benzo[b]azepin-8-yl)-1H-pyrazol-1-yl)azetidin-3-yl)acetonitrile] | 0.001 to 1 µM | 0.001 to 1 µM | 0.001 to 1 µM | 0.001 to 1 µM
10 | CCOCCn1cc(-c2ccc3c(c2)N(Cc2ccc(OC)cc2)C(=O)CC(c2ncc(C)o2)=C3)cn1 [Compound 80, 8-(1-(2-ethoxyethyl)-1H-pyrazol-4-yl)-1-(4-methoxybenzyl)-4-(5-methyloxazol-2-yl)-1,3-dihydro-2H-benzo[b]azepin-2-one] | 0.001 to 1 µM | 0.001 to 1 µM | 0.001 to 1 µM | 0.001 to 1 µM
11 | CCS(=O)(=O)N1CC(CC#N)(n2cc(-c3ccc4c(c3)N(Cc3ccc(OC)cc3)C(=O)CC(c3ncc(C)o3)=C4)cn2)C1 [Compound 84, 2-(1-(Ethylsulfonyl)-3-(4-(1-(4-methoxybenzyl)-4-(5-methyloxazol-2-yl)-2-oxo-2,3-dihydro-1H-benzo[b]azepin-8-yl)-1H-pyrazol-1-yl)azetidin-3-yl)acetonitrile] | 0.001 to 1 µM | 0.001 to 1 µM | 0.001 to 1 µM | 0.001 to 1 µM
12 | Cc1cnc(C2=Cc3ccccc3N(Cc3ccc(C)c(F)c3)C(=O)C2)o1 [Compound 18, 1-(3-fluoro-4-methylbenzyl)-4-(5-methyloxazol-2-yl)-1,3-dihydro-2H-benzo[b]azepin-2-one] | 0.001 to 1 µM | 0.001 to 1 µM | 0.001 to 1 µM | 0.001 to 1 µM
13 | COc1ccc(CN2C(=O)CC(c3ncc(C)o3)=Cc3ccc(-c4ccc(F)nc4)cc32)cc1 [Compound 41, 8-(6-fluoropyridin-3-yl)-1-(4-methoxybenzyl)-4-(5-methyloxazol-2-yl)-1,3-dihydro-2H-benzo[b]azepin-2-one] | 0.001 to 1 µM | 0.001 to 1 µM | 0.001 to 1 µM | 0.001 to 1 µM
14 | COc1ccc(CN2C(=O)CC(c3ncc(C)o3)=Cc3ccc(-c4ccn(C)n4)cc32)cc1 [Compound 31, 1-(4-methoxybenzyl)-8-(1-methyl-1H-pyrazol-3-yl)-4-(5-methyloxazol-2-yl)-1,3-dihydro-2H-benzo[b]azepin-2-one] | 0.001 to 1 µM | 0.001 to 1 µM | 0.001 to 1 µM | 0.001 to 1 µM
15 | COc1ccc(CN2C(=O)CC(c3ncc(C)o3)=Cc3ccccc32)cc1 [Compound 24, 1-(4-methoxybenzyl)-4-(5-methyloxazol-2-yl)-1,3-dihydro-2H-benzo[b]azepin-2-one] | 0.001 to 1 µM | 0.001 to 1 µM | 0.001 to 1 µM | 0.001 to 1 µM
16 | COc1ccc(CN2C(=O)CC(c3ncc(C)o3)=Cc3ccc(-c4cnn(C5(CC#N)COC5)c4)cc32)cc1 [Compound 88, 2-(3-(4-(1-(4-Methoxybenzyl)-4-(5-methyloxazol-2-yl)-2-oxo-2,3-dihydro-1H-benzo[b]azepin-8-yl)-1H-pyrazol-1-yl)oxetan-3-yl)acetonitrile] | 0.001 to 1 µM | 0.001 to 1 µM | 0.001 to 1 µM | 0.001 to 1 µM
17 | COc1ccc(CN2C(=O)CC(c3nnc(C4CC4)o3)=C(Br)c3ccccc32)c(F)c1 [Compound 5, 5-Bromo-4-(5-cyclopropyl-1,3,4-oxadiazol-2-yl)-1-(2-fluoro-4-methoxybenzyl)-1,3-dihydro-2H-benzo[b]azepin-2-one] | 0.001 to 1 µM | 0.001 to 1 µM | 0.001 to 1 µM | 0.001 to 1 µM
18 | Cc1ccc(CN2C(=O)CC(c3nnc(C4CC4)o3)=C(Br)c3ccc(OCCOCCOCCOCCOc4ccc5c(c4)N(Cc4ccc(C)c(F)c4)C(=O)CC(c4nnc(C6CC6)o4)=C5Br)cc32)cc1F [Compound 2, 8,8′-((((Oxybis(ethane-2,1-diyl))bis(oxy))bis(ethane-2,1-diyl))bis(oxy))bis(5-bromo-4-(5-cyclopropyl-1,3,4-oxadiazol-2-yl)-1-(3-fluoro-4-methylbenzyl)-1,3-dihydro-2H-benzo[b]azepin-2-one)] | 1 to 10 µM | 1 to 10 µM | 1 to 10 µM | 1 to 10 µM

Reference: patent US20260317340A1, “COMPOUNDS, COMPOSITIONS, AND METHODS OF TREATING DISORDERS” (Chengdu Anticancer Bioscience, Ltd., priority 2023, published 2026)
